Assay results: patent publication US20230010299A1, “HETEROCYCLIC TRPML1 AGONISTS” (LIBRA THERAPEUTICS, INC., priority 2019, published 2023)

Legend:
TRPML1 [1] = target: T1, TRPML1 (Homo sapiens, UniProt Q9GZU1); assay: TRPML1 automated patch-clamp (QPatch 16X); format: cell-based; details: HEK T-REx/GcaMP6f/TRPML1 cells, current with compound/current in vehicle, extracellular pH 4.6
T1 construct: expressed in transfected cells
Experimental: TRPML1—Automated Patch-Clamp
HEK T-REx/GcaMP6f/TRPML1 cells were cultured in DMEM High Glucose (Lonza BioWhittaker cat. BE12-604F/U1; 500 mL) supplemented with Fetal Bovine Serum TET-FREE (Euroclone cat. EC S0182L; 50 mL, Penicillin-Streptomycin (BioWhittaker, cat. DE17-602E; 5 mL of 100× Solution), G418 (Sigma, cat. G8168; 0.25 mg/ml) and Zeocyn (InvivoGen, cat. ant-zn-1; 50 μg/ml).
HEK T-REx/GcaMP6f/TRPML1 cells were seeded 48 or 72 hours before experiment, at a concentration of 8*10^6/4*10^6 cells onto a T225 flask. Just before the experiments, cells were washed twice with D-PBS w/o Ca^2+/Mg^2+ (Euroclone cat. ECB4004L) and detached from the flask with trypsin-EDTA (Sigma cat. T4174; diluted 1/10). Cells were then re-suspended in the suspension solution: 25 mL EX-CELL ACF CHO medium(Sigma cat. C5467); 0.625 mL HEPES (Sigma cat. H0887); 0.25 mL of 100× Penicillin/Streptomycin (Euroclone cat. ECB3001D), 0.1 mL of Soybean Trypsin Inhibitor 10 mg/mL (Sigma cat. T6522) and placed on the QPatch 16X.
Dilution from stock were prepared just before the experiments in the extracellular solution (0.25% final DMSO concentration). DMSO solution was obtained from AppliChem (cat. A3672)
Patch Clamp Solutions: • Intracellular solution (mM): 120 CsMeSO3, 4 NaCl, 2 MgCl2, 10 EGTA, 20 HEPES, 2 Mg-ATP (pH 7.2 with CsOH). • Extracellular solution (mM): 140 NaGluconate, 5 KCl, 1 MgCl2, 2 CaCl2), 10 Glucose, 10 MES (pH 4.6 with HCl).
Patch Clamp Analysis—QPatch 16X
For the voltage clamp experiments on TRPML1, data were sampled at 5 KHz. After establishment of the seal and the passage in the whole cell configuration, the cells were held at −20 mV and the TRPML1 current was evoked using the voltage protocol illustrated in FIG. 2, applied every 5 sec. (50 ms at −20 mV; 20 ms at −120 mV, 1000 ms ramp from −120 to […]; 20 ms at +40 mV, and back to −20 mV); in the absence (vehicle period, i.e. 0.25% DMSO) and in the presence of increasing concentrations (3) of the compound under investigation.
Agonists: For data collection, the Sophion proprietary software was used and the analysis was performed off-line using Excel and GraphPad Prism (V 8.00). Results are reported in Table 6, expressed as TRPML1 current fold increase evoked by the compound under investigation (i.e. current in the presence of the compound/current in vehicle).

TRPML1 [2] = target: T1, TRPML1; assay: TRPML1 manual patch clamp on isolated enlarged endolysosomes; format: cell-based; details: whole-endolysosome recording, HEK T-REx/GcaMP6f/TRPML1 cells, luminal pH 4.6
Experimental: TRPML1 —Manual Patch Clamp
Endolysosomal electrophysiology was performed in isolated enlarged endolysosomes using a modified patch-clamp method (Dong et al., 2010). HEK T-REx/GcaMP6f/TRPML1 cells were treated with […] PIKfive inhibitor overnight. Whole-endolysosome recordings were performed on manually isolated enlarged endolysosomes (Dong et al., 2010). In brief, a patch pipette was pressed against a cell and quickly pulled away to slice the cell membrane. Enlarged endolysosomes were released into a dish and a gigaseal between the patch pipette and the enlarged endolysosome was obtained. Negative pressure or voltage steps of several hundred millivolts with millisecond duration were then applied to break into the vacuolar membrane.
Bath (internal/cytoplasmic) solution contained 140 mM K-gluconate, 4 mM NaCl, 1 mM EGTA, 2 mM MgCl2, 0.39 mM CaCl2), 20 mM HEPES (pH was adjusted with KOH to 7.2). The pipette (luminal) solution was standard extracellular solution (modified Tyrode's: 145 mM NaCl, 5 mM KCl, 2 mM CaCl2), 1 mM MgCl2, 10 mM HEPES, 10 mM MES, 10 mM glucose; the pH was adjusted with NaOH to pH 4.6).
Dilution from stock were prepared just before the experiments in the extracellular solution (0.1% final DMSO concentration). DMSO solution was obtained from AppliChem (cat. A3672).
All bath solutions were applied via a perfusion system that allowed us to achieve complete solution exchange within a few seconds.
Data were collected using an HEKA EPC 10 patch-clamp amplifier, and PatchMaster v2x73.5 software (HEKA Elektronik). Whole-endolysosome currents were digitized at 20 kHz. All experiments were conducted at room temperature, and all recordings were analyzed with pClamp 10.7 (Molecular Devices) and GraphPad Prism (V8.00).
TRPML1 current was evoked using the voltage protocol illustrated in FIG. 3, applied every 5 sec. (10 ms at −80 mV; 500 ms ramp from −120 to +40 mV; 10 ms at −80 mV); in the absence (vehicle period, i.e. 0.1% DMSO) and in the presence of the compound (agonist) under investigation.

T1 sequence (Q9GZU1 whole entry): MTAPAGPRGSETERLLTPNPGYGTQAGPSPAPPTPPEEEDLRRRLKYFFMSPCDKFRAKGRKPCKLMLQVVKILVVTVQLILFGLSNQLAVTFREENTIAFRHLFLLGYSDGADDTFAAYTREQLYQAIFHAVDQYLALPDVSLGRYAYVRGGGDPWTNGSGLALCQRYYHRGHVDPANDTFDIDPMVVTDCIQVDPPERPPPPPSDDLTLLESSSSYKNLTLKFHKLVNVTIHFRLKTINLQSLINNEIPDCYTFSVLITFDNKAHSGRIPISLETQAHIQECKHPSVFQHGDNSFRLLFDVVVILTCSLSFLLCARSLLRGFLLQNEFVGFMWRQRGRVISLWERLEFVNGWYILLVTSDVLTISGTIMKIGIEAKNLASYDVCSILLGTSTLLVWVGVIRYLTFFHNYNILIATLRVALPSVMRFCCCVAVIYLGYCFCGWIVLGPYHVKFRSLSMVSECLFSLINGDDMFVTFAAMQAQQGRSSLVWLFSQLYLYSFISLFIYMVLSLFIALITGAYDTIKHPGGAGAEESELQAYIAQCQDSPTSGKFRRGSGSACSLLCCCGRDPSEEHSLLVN

Row | SMILES | Qpatch Assay TRPML1 agonism Current fold increase Mean ± SEM (n) (TRPML1 [1]; 0.3 μM compound) | Qpatch Assay TRPML1 agonism Current fold increase Mean ± SEM (n) (TRPML1 [1]; 3.0 μM compound) | Qpatch Assay TRPML1 agonism Current fold increase Mean ± SEM (n) (TRPML1 [1]; 30 μM compound) | Lysosomal Patch-Clamp Current fold increase Mean ± SEM (n) (TRPML1 [2]; 2.0 uM compound) | Lysosomal Patch-Clamp Current fold increase Mean ± SEM (n) (TRPML1 [2]; 30.0 uM compound)
1 | CN(C)S(=O)(=O)c1ccc(S(=O)(=O)Nc2ccccc2N2CCN(C(=O)OC(C)(C)C)CC2)cc1 [Example 13, tert-butyl 4-{2-[4-(dimethylsulfamoyl)benzenesulfonamido]phenyl}piperazine-1-carboxylate] | 13.5 ± 4.8 (4) | 208 ± 15.7 (4) | 244 ± 27.6 (4) |  | 27.5 ± 10.8 (2)
2 | CN(C)S(=O)(=O)c1ccc(S(=O)(=O)Nc2ccccc2N2CCCCC2)cc1 [Example 6, N1,N1-dimethyl-N4-[2-(piperidin-1-yl)phenyl]benzene-1,4-disulfonamide] | 1.0 ± 0.77 (3) | 32.7 ± 8.9 (3) |  | 3.3 ± 0.67 (3) | 
3 | CN(C)S(=O)(=O)c1ccc(S(=O)(=O)Nc2ccccc2N2CCC(C(=O)OC(C)(C)C)CC2)cc1 [Example 76, f-butyl 1-{2-[4-(dimethylsulfamoyl)benzenesulfonamido]phenyl}piperidine-4-carboxylate] | 35.6 ± 26.7 (3) | 38.5 ± 24.8 (2) | 52.7 ± 36.3 (2) |  | 

Continued, values first:

Row | Qpatch Assay TRPML1 agonism Current fold increase Mean ± SEM (n) (TRPML1 [1]; 0.3 μM compound) | Qpatch Assay TRPML1 agonism Current fold increase Mean ± SEM (n) (TRPML1 [1]; 3.0 μM compound) | Qpatch Assay TRPML1 agonism Current fold increase Mean ± SEM (n) (TRPML1 [1]; 30 μM compound) | Lysosomal Patch-Clamp Current fold increase Mean ± SEM (n) (TRPML1 [2]; 2.0 uM compound) | Lysosomal Patch-Clamp Current fold increase Mean ± SEM (n) (TRPML1 [2]; 30.0 uM compound) | SMILES
4 | 0.39 ± 0.14 (2) | 0.86 ± 0.68 (2) | 4.3 ± 2.2 (2) | 18.0 ± 8.5 (3) |  | CN(C)S(=O)(=O)c1ccc(S(=O)(=O)NC2CCCCC2N2CCC(Oc3ccccc3)CC2)cc1 (racemic) [Example 57, N1,N1-dimethyl-N4-[2-(4-phenoxypiperidin-1-yl)cyclohexyl]benzene-1,4-disulfonamide]
5 | 310 ± 147 (4) | 435 ± 172 (4) | 603 ± 155 (3) |  |  | CN(C)S(=O)(=O)c1ccc(S(=O)(=O)Nc2ccccc2N2CCC(Oc3ccccn3)CC2)cc1 [Example 75, N1,N1-dimethyl-N4-{2-[4-(pyridin-2-yloxy)piperidin-1-yl]phenyl}benzene-1,4-disulfonamide]
6 | 74.4 ± 13.8 (3) | 167 ± 10.7 (3) | 168 ± 9.8 (3) |  |  | CN(C)S(=O)(=O)c1ccc(S(=O)(=O)Nc2ccccc2N2CCC(Oc3cnccn3)CC2)cc1 [Example 77, N1,N1-dimethyl-N4-{2-[4-(pyrazin-2-yloxy)piperidin-1-yl]phenyl} benzene-1,4-disulfonamide]
